Test [1] deals with Methyl-CpG-binding domain protein 4 (Homo sapiens) (UniProt O95243). As to conditions: Compound Concentration 10.0 uM, Hit No.
Description: Inhibition of MBD4 by quantifying inhibition of MBD4-mediated cleavage and dissociation of quenched duplex DNA oligonucleotides, measured as fluorescence at 594 nm. To generate a functional strand incision and increase turn-over this assay is coupled to APE1.
Test [2] concerns the target DNA-3-methyladenine glycosylase (Homo sapiens) (UniProt P29372). As to conditions: Compound Concentration 10.0 uM, Hit No.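 Also: enzyme assay where MPG cuts a quenched duplex DNA oligonucleotide probe, paired with APE1 for strand incision and turnover, read as fluorescence at 594 nm.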
Description: Inhibition of MPG by quantifying inhibition of MPG-mediated cleavage and dissociation of quenched duplex DNA oligonucleotides, measured as fluorescence at 594 nm. To generate a functional strand incision and increase turn-over this assay is coupled to APE1.
Test [3] concerns the target T1, Adenine DNA glycosylase (Homo sapiens) (UniProt Q9UIF7).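 Also: human MUTYH activity read as 594 nm fluorescence from cleavage and release of a quenched DNA duplex, coupled with APE1 for strand incision, lower signal meaning inhibition.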
T1 sequence (whole entry): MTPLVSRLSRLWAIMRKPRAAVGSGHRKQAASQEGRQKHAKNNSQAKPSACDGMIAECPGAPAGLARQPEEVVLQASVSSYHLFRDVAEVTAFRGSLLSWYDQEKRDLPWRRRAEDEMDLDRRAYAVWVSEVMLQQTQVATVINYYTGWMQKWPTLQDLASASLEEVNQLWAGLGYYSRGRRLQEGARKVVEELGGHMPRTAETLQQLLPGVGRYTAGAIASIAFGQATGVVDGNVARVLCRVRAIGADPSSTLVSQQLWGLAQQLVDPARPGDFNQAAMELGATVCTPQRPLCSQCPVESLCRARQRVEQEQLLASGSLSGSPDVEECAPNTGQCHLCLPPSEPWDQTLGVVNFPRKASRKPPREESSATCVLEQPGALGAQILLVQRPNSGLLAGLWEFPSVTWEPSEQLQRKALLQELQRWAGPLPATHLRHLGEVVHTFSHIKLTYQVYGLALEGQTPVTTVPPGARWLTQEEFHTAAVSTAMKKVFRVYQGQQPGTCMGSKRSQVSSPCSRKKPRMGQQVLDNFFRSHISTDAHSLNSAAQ
The following applies: Compound Concentration 10.0 uM, Hit No.
Description: Inhibition of MUTYH by quantifying inhibition of MUTYH-mediated cleavage and dissociation of quenched duplex DNA oligonucleotides, measured as fluorescence at 594 nm. To generate a functional strand incision and increase turn-over this assay is coupled to APE1.

For test [4], the target named is Endonuclease 8-like 1 (Homo sapiens) (UniProt Q96FI4). The following applies: Compound Concentration 10.0 uM, Hit No.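 Also: fluorescence at 594 nm from quenched duplex DNA oligonucleotides released by NEIL1 cleavage and strand separation, reported as reduction of this enzyme activity.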
Sequence of Endonuclease 8-like 1 (Homo sapiens) (Q96FI4 whole entry): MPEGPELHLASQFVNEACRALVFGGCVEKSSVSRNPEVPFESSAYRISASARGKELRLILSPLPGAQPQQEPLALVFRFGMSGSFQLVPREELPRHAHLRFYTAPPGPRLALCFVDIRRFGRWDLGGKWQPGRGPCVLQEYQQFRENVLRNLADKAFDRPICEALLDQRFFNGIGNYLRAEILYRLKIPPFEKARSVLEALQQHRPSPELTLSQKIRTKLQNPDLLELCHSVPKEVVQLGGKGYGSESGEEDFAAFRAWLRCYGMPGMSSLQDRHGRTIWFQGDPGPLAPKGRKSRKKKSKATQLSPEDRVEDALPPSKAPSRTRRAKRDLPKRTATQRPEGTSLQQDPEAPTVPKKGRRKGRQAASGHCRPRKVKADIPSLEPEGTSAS
Description: Inhibition of NEIL1 by quantifying inhibition of NEIL1-mediated cleavage and dissociation of quenched duplex DNA oligonucleotides, measured as fluorescence at 594 nm.
In test [5] the target is T2, Endonuclease 8-like 2 (Homo sapiens) (UniProt Q969S2).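 Also: fluorescence at 594 nm reports NEIL2 cutting and release of a quenched double-stranded DNA oligo substrate, reduced signal read as inhibition.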
T2 sequence (whole entry): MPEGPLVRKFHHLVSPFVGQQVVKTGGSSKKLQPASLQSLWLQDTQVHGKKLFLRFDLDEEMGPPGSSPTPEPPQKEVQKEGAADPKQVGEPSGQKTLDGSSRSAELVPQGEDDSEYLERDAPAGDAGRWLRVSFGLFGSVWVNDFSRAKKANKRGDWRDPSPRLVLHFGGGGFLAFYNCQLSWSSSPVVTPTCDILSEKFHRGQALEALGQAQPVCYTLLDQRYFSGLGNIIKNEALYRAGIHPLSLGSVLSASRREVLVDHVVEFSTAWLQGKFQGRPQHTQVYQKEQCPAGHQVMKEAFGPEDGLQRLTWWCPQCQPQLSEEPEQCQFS
The following applies: Compound Concentration 10.0 uM, Hit No.
Description: Inhibition of NEIL2 by quantifying inhibition of NEIL2-mediated cleavage and dissociation of quenched duplex DNA oligonucleotides, measured as fluorescence at 594 nm.

The target in test [6] is T3, Single-strand selective monofunctional uracil DNA glycosylase (Homo sapiens) (UniProt Q53HV7).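 Also: enzymatic SMUG1 assay coupled with APE1, reading fluorescence at 594 nm released when a quenched double-stranded DNA oligonucleotide substrate is cleaved and separated.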
T3 sequence (whole entry): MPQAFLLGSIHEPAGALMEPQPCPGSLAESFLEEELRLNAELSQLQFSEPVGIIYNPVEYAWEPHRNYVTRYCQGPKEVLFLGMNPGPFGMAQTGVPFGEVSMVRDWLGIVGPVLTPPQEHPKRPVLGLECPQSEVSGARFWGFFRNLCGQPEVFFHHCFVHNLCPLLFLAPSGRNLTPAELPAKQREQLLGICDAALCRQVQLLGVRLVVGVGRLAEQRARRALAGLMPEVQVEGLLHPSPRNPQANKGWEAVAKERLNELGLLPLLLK
As to conditions: Compound Concentration 10.0 uM, Hit No.
Description: Inhibition of SMUG1 by quantifying inhibition of SMUG1-mediated cleavage and dissociation of quenched duplex DNA oligonucleotides, measured as fluorescence at 594 nm. To generate a functional strand incision and increase turn-over this assay is coupled to APE1.

Test [7] has as its target G/T mismatch-specific thymine DNA glycosylase (Homo sapiens) (UniProt Q13569). The following applies: Compound Concentration 10.0 uM, Hit No.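 Also: human TDG cleavage of quenched duplex DNA oligonucleotides coupled to APE1, strand release read as fluorescence at 594 nm, inhibition of TDG activity.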
Description: Inhibition of TDG by quantifying inhibition of TDG-mediated cleavage and dissociation of quenched duplex DNA oligonucleotides, measured as fluorescence at 594 nm. To generate a functional strand incision and increase turn-over this assay is coupled to APE1.
For test [8], the target named is Uracil-DNA glycosylase (Homo sapiens) (UniProt P13051). The following applies: Compound Concentration 10.0 uM, Hit No.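 Also: UNG excision on a quenched double-stranded DNA oligo probe, with APE1 added for strand incision and turnover, read as fluorescence at 594 nm as strands separate.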
Sequence of Uracil-DNA glycosylase (Homo sapiens) (P13051 whole entry): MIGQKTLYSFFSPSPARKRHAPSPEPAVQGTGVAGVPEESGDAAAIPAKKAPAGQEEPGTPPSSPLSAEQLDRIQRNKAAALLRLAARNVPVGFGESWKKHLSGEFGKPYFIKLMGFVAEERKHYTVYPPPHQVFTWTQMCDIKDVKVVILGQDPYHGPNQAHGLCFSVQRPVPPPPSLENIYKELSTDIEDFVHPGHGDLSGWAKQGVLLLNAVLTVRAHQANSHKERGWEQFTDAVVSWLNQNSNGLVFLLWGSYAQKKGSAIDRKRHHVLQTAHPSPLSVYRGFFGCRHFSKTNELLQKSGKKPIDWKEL
Description: Inhibition of UNG by quantifying inhibition of UNG-mediated cleavage and dissociation of quenched duplex DNA oligonucleotides, measured as fluorescence at 594 nm. To generate a functional strand incision and increase turn-over this assay is coupled to APE1.
For test [9], the target named is N-glycosylase/DNA lyase (Homo sapiens) (UniProt O15527). As to conditions: Compound Concentration 10.0 uM.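 Also: OGG1 cleavage of a quenched duplex DNA oligonucleotide, coupled to APE1 for strand incision, read as fluorescence at 594 nm.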
Sequence of N-glycosylase/DNA lyase (Homo sapiens) (O15527 whole entry): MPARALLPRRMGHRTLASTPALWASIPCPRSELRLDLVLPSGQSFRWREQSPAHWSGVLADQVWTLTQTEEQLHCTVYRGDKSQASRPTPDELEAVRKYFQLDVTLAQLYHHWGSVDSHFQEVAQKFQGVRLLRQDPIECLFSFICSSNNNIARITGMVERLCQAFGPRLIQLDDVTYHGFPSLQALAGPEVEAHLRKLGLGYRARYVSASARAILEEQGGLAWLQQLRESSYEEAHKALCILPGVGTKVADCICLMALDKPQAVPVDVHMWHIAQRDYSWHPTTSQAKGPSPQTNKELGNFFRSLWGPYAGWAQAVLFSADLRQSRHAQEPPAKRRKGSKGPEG
Description: Inhibition of OGG1 by quantifying inhibition of OGG1-mediated cleavage and dissociation of quenched duplex DNA oligonucleotides, measured as fluorescence at 594 nm. To generate a functional strand incision and increase turn-over this assay is coupled to APE1.

Sequence of G/T mismatch-specific thymine DNA glycosylase (Homo sapiens) (Q13569 whole entry): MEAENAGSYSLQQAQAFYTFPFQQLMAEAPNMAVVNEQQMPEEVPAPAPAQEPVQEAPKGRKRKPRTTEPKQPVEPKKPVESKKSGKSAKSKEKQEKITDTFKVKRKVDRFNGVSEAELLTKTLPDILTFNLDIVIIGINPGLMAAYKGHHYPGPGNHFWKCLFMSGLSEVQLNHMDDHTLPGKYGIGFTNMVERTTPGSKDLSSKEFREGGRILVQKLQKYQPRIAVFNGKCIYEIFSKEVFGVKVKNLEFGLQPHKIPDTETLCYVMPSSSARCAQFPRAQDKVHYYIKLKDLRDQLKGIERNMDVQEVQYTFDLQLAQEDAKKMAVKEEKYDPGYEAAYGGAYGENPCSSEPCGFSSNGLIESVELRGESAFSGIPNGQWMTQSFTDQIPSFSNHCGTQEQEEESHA
Sequence of Methyl-CpG-binding domain protein 4 (Homo sapiens) (O95243 whole entry, the tested form may be a part): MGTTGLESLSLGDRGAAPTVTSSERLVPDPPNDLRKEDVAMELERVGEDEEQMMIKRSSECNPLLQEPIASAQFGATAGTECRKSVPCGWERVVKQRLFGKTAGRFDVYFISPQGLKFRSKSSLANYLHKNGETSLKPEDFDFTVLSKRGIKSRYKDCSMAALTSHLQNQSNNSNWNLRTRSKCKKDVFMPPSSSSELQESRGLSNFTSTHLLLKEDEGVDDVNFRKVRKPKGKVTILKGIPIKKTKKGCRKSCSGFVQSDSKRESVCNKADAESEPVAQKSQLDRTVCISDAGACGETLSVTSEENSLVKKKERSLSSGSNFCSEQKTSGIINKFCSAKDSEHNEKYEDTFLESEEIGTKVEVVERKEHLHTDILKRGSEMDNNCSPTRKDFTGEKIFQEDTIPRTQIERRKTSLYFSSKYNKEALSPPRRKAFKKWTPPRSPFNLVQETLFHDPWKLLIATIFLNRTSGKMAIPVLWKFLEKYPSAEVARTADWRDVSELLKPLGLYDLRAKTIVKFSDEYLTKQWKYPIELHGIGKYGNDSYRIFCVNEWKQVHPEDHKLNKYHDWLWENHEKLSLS
Sequence of DNA-3-methyladenine glycosylase (Homo sapiens) (P29372 whole entry): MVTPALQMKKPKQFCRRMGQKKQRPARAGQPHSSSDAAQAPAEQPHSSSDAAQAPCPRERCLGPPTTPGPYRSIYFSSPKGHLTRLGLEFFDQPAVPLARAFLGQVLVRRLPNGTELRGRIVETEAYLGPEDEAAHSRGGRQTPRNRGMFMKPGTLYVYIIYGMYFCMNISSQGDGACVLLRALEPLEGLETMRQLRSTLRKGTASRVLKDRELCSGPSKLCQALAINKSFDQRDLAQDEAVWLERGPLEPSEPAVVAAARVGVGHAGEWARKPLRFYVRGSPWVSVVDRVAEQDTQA

What is called inhibition is the drop in the measured response relative to a control, in per cent. Consider `CCCc1nc2c(C)cc(-c3nc4ccccc4n3C)cc2n1Cc1ccc(-c2ccccc2C(=O)O)cc1`, for which the inhibition in test [1] is 15.7%; in test [2], -0.129%; in [3] it was 24.6%; in test [4], 15.1%; in test [5] it was 15.5%; in test [6] it was 3.75%. Further, the results for the inhibition in [7] and in test [8] were 18.9% and -6.03%, respectively.

For `COc1cc(C(=O)N(CCCc2ccccc2)Cc2ccc(CC(=O)O)cc2)cc(OC)c1C`, the inhibition was 21.5% in test [1]; 2.65% in test [2]; 20.4% in test [3]; -1.83% in test [4]; -7.97% in test [5]; -6.84% in test [9] (Hit No). For the same molecule, the inhibition is -4.44% in [6] and 17.3% in test [7].

Take `COc1c(Nc2ccc(S(C)(=O)=O)nc2C)ncnc1OC1CCN(C(=O)OC(C)C)CC1`: the inhibition in [1] was -6.99%; in test [2], -8.34%; in test [3], 16.4%; in test [4], -6.28%; in test [5] it was 6%; in test [9] (Hit No), -1.26%. The inhibition in [6] was -7.64%; in test [7], -5.57%.

Turning to `Cc1cc([C@@H](C)Nc2cccc(-c3cc(C)c(C(=O)N[C@@H](C)C(=O)O)c(C)c3)c2)ccc1Cl`, the inhibition in test [1] is 41.7%; in test [2] it was 24.6%; in [3], 43.4%; in test [4], -0.204%; in test [5], -3.73%; in test [9] (Hit No) it was 24.2%. Besides, the inhibition in test [7] is 36.1%; in test [8], -6.25%.

In the case of `CCCCC#Cc1nc(NC)c2ncn([C@@H]3O[C@H](CO)[C@@H](O)[C@H]3O)c2n1`, the inhibition in test [1] is 0.324%; in [2], -9.85%; in test [3], -0.235%; in test [4], -4.5%; in test [5] it was 5.51%; in test [9] (Hit No) it was -7.52%. Besides, the figures for the inhibition in test [6] and in [7] were -0.13% and -7.72%, respectively.

Take `CC(=O)Nc1nc2c(Oc3cc(-c4ccc(C(F)(F)F)cc4)ncn3)cccc2s1`: the inhibition in [1] was 1.85%; in test [2], 11.2%; in test [3], -8.12%; in test [4], 4.31%; in test [5], -1.88%; in [6], -4.87%. Besides, the values for the inhibition in [7] and in test [8] were -3.88% and -3.19%, respectively.

With `COc1ccc(Br)cc1S(=O)(=O)NC(=O)/C=C/c1ccccc1Cc1ccc2ccccc2c1`, the inhibition in [1] is 18%; in test [2], -3.79%; in [3] it was 5.65%; in test [4], 0.537%; in test [5], 6.5%; in test [9] (Hit No), 30.2%. Besides, the inhibition was -2.31% in [6] and 2.91% in [7].

Take `CC#C[C@@H](CC(=O)O)c1ccc(OCc2cccc(-c3ccc(C(F)(F)F)cc3)c2)cc1`: the inhibition in test [1] is 48.1%; in test [2], 28.7%; in test [3], 47.2%; in test [4] it was 1.13%; in [5] it was 0.764%; in test [9] (Hit Yes) it was 64.3%. Moreover, the inhibition in [7] was 41.7%; in [8] it was -4.48%.

On to `CC(COc1ccccc1)N(CCCl)Cc1ccccc1` (configuration not stated), for which the inhibition is 6.02% in [1]; 8.43% in test [2]; 20.2% in [3]; -3.32% in [4]; 5.01% in test [5]; 41.7% in [9] (Hit Yes). In addition, the inhibition in test [6] is -8.75%; in [7], 9.17%.

Consider `NS(=O)(=O)c1cncc(-c2nc(NCc3ccccn3)c3c(-c4ccccc4)cccc3n2)c1`, for which the inhibition in test [1] was 16%; in test [2] it was 0.0701%; in [3], 8.92%; in test [4], 10.4%; in [5] it was -1.88%; in test [6], 7.73%. For the same molecule, the inhibition in test [7] came out at 14.7%; in [8], 0.783%.

As for `COc1cc(/C=C/C(=O)NCCn2c(C)cc3ccccc32)cc(OC)c1OC`, the inhibition in test [1] is 11.5%; in test [2], 27.9%; in test [3], 6.04%; in test [4], -9.62%; in test [5], 4.49%; in test [6], -8.26%. Besides, the inhibition is 15.6% in test [7] and -0.0662% in test [8].

In the case of `C=CC(=O)Nc1ccc2[nH]c(=O)n(C3CCN(C(=O)c4ccc(-c5nc6cc[nH]c(=O)c6cc5-c5ccccc5)cc4)CC3)c2c1`, the inhibition was -5.4% in test [1]; -2.18% in [2]; 1.89% in test [3]; -0.919% in test [4]; 19.4% in test [5]; 78.5% in test [9] (Hit No). Besides, the inhibition is 58.7% in [7] and -1.3% in test [8].

Regarding `O=C(Cc1ccccc1)Nc1nc2ccc(Cl)cc2c2nc(-c3ccco3)nn12`, the inhibition in test [1] was -7.05%; in [2], 6.12%; in test [3] it was 13.8%; in [4], -6.88%; in test [5], -4.48%; in test [9] (Hit No) it was -2.3%. In addition, the inhibition in test [7] is 4.82%.

As for `CCC[C@H](Oc1cc(C)c(-n2cc(C(F)(F)F)cn2)c(C)c1)c1ccc(C(=O)NCCC(=O)O)cc1`, the inhibition in test [1] is 19.8%; in [2] it was -2.83%; in test [3], 39.2%; in test [4], 4.69%; in [5], 6.5%; in test [9] (Hit No), 8.48%. Further, the inhibition in test [7] is 24.9%.

For `CC(C)C[C@H](NC(=O)N1CCCCCC1)C(=O)N[C@H](Cc1cn(C)c2ccccc12)C(=O)N[C@H](Cc1ccccn1)C(=O)O`, the inhibition in [1] was -1.3%; in test [2], -0.244%; in test [3], 9.62%; in [4], -0.0556%; in test [5] it was 6%; in [9] (Hit No), -9.37%. Moreover, the results for the inhibition in test [7] and in [8] were 3.66% and -6.34%, respectively.

On to `COc1cccc(-c2c(C)n(Cc3c(F)cccc3C(F)(F)F)c(=O)n(C[C@H](NCCCC(=O)O)c3ccccc3)c2=O)c1F`, for which the inhibition in test [1] is -5.02%; in test [2] it was 1.07%; in test [3], 1.3%; in [4], -2.87%; in test [5] it was -9.22%; in test [9] (Hit No), -3.13%. Further, the inhibition in [7] is 27.2%.

Consider `O=C(O)COc1cccc(CN(Cc2ccc(-n3cccn3)cc2)S(=O)(=O)c2cccnc2)c1`, for which the inhibition in test [1] was 13.1%; in [2] it was 2.46%; in test [3] it was 5.01%; in test [4], 0.389%; in test [5], -7.47%; in test [6], -3.28%. The inhibition in [7] is -2.75%.

As for `Cc1cccc(S(=O)(=O)N(C)[C@H](C)CCN2CCC(C)CC2)c1`, the inhibition in test [1] is 3.33%; in test [2] it was -2.23%; in test [3], 9.55%; in [4] it was 1.79%; in test [5] it was 6.53%; in test [6], 1.46%. Also, the inhibition in test [7] is 1.58%; in test [8], -5.83%.

For `Cc1c(F)cccc1NC(=O)Nc1ccc(Cl)c(S(=O)(=O)[C@H]2CCCNC2)c1O`, the inhibition was 0.266% in test [1]; 11.6% in test [2]; -4.97% in test [3]; -7.22% in test [5]; -3.57% in test [6]; 3.94% in test [7]. In addition, the inhibition in test [8] was -9.51%.

For the origin of these results see ChEMBL document CHEMBL5665443, “Enzyme Inhibitor Single Concentration assay results for EUbOPEN Chemogenomics Library” (2024).
